Reference: ChEMBL document CHEMBL4507291 (2021)

Legend:
[1] = test system: Tyrosine-protein kinase ABL1 (Homo sapiens), P00519 [F317I]
[2] = molecular target: Serine/threonine-protein kinase DCLK1 (Homo sapiens) (UniProt O15075)
[3] = molecular target: Mitogen-activated protein kinase kinase kinase 12 (Homo sapiens) (UniProt Q12852)
[4] = test system: Epidermal growth factor receptor (Homo sapiens), P00533 [L858R,T790M]
[5] = molecular target: Fibroblast growth factor receptor 2 (Homo sapiens) (UniProt P21802)
[6] = molecular target: Tyrosine-protein kinase JAK2 (Homo sapiens) (UniProt O60674)
[7] = molecular target: T1, Mitogen-activated protein kinase kinase kinase 3 (Homo sapiens) (UniProt Q99759)
T1 sequence (whole entry): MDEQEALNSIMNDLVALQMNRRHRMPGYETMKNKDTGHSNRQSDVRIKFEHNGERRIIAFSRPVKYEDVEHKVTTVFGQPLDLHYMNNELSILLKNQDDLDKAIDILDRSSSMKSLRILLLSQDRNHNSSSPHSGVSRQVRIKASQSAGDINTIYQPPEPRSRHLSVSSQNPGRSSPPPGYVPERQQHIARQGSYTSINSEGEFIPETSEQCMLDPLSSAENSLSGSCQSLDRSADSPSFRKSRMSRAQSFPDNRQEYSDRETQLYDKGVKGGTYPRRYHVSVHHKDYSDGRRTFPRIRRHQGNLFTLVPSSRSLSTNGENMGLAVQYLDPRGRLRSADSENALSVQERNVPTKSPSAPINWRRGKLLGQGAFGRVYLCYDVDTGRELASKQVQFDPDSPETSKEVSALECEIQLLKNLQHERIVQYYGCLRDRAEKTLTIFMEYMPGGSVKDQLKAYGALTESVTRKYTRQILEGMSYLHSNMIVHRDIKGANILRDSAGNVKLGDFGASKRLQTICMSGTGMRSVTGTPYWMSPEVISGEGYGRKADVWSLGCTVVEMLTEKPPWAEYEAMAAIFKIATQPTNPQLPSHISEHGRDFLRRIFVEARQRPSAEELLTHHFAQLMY

[8] = molecular target: Dual specificity mitogen-activated protein kinase kinase 2 (Homo sapiens) (UniProt P36507)
[9] = molecular target: Mitogen-activated protein kinase kinase kinase 14 (Homo sapiens) (UniProt Q99558)
[10] = molecular target: Phosphatidylinositol 4-kinase beta (Homo sapiens) (UniProt Q9UBF8)
[11] = molecular target: RAF proto-oncogene serine/threonine-protein kinase (Homo sapiens) (UniProt P04049)
[12] = test system: Proto-oncogene tyrosine-protein kinase receptor Ret (Homo sapiens), P07949 [M918T]
[13] = molecular target: Serine/threonine-protein kinase RIO3 (Homo sapiens) (UniProt O14730)
[14] = molecular target: Ribosomal protein S6 kinase alpha-6 (Homo sapiens) (UniProt Q9UK32)
[15] = molecular target: Tyrosine-protein kinase SYK (Homo sapiens) (UniProt P43405)
[16] = molecular target: Testis-specific serine/threonine-protein kinase 1 (Homo sapiens) (UniProt Q9BXA7)
[17] = molecular target: T2, 5-hydroxytryptamine receptor 2C (Homo sapiens) (UniProt P28335); conditions: Compound concentration 10.0 uM
T2 sequence (whole entry): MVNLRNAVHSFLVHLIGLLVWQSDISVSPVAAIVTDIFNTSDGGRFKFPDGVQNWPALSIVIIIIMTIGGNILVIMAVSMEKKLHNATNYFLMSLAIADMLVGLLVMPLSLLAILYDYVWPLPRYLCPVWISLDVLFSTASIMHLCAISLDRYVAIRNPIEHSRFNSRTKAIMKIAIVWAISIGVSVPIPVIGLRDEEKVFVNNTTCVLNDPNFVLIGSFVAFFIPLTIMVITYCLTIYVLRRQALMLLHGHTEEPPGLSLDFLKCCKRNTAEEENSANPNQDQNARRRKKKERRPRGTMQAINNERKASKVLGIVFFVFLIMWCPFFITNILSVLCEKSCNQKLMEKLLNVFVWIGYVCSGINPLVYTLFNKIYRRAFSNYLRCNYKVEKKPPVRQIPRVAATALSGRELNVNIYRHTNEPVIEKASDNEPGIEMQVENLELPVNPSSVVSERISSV

[18] = molecular target: D(1B) dopamine receptor (Homo sapiens) (UniProt P21918); conditions: Compound concentration 10.0 uM
[19] = Compound concentration 1000.0 nM
[20] = Compound concentration 100.0 nM

Sequence of Mitogen-activated protein kinase kinase kinase 12 (Homo sapiens) (Q12852 whole entry): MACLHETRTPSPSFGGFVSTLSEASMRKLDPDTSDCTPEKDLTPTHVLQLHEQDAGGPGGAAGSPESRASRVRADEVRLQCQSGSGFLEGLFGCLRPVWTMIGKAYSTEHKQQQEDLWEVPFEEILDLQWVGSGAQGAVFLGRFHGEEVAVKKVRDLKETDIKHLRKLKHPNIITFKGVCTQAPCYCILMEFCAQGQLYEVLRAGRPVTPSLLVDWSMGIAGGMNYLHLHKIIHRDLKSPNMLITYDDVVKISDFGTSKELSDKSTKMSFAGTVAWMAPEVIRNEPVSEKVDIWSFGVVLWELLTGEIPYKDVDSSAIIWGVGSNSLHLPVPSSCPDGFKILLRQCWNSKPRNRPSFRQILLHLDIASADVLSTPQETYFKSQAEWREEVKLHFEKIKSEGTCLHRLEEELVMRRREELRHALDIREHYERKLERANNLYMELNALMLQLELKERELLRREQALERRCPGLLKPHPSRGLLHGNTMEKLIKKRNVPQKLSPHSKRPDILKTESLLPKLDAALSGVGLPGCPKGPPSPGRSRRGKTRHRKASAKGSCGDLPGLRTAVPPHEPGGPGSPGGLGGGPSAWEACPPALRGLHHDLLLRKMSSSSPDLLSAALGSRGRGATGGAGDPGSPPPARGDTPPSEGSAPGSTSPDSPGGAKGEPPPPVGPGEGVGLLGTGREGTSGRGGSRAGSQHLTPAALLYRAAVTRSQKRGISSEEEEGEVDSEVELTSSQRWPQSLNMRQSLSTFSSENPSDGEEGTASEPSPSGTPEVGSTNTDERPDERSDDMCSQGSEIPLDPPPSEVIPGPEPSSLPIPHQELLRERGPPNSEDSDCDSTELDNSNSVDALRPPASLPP
Sequence of Tyrosine-protein kinase JAK2 (Homo sapiens) (O60674 whole entry): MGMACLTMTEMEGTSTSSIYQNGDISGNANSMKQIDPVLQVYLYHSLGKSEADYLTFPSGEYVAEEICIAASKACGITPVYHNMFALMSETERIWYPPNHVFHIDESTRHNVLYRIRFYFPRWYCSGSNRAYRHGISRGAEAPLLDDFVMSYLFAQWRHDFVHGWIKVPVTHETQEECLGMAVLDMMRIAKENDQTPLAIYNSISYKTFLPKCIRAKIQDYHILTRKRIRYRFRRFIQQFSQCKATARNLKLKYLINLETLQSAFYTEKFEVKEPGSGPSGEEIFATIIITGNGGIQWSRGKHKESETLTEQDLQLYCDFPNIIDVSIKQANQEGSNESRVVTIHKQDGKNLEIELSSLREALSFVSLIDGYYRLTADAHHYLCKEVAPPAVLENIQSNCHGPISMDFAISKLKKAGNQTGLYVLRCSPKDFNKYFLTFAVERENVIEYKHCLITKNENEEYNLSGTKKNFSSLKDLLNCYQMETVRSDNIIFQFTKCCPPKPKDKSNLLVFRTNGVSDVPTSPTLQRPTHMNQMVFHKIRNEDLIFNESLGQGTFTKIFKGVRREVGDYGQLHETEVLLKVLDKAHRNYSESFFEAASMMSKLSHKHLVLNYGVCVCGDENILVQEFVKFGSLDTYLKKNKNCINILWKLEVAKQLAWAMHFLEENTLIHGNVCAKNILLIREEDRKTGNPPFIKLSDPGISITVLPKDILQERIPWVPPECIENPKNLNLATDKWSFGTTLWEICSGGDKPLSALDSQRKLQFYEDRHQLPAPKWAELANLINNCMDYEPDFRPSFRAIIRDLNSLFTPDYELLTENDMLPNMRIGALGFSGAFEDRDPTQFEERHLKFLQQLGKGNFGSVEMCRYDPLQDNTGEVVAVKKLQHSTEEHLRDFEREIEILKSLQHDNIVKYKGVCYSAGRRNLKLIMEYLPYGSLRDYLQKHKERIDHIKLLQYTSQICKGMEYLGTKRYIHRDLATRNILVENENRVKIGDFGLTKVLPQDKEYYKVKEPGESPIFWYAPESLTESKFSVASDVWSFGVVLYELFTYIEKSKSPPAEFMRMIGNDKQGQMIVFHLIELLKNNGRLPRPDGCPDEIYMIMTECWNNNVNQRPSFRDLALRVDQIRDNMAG
Sequence of D(1B) dopamine receptor (Homo sapiens) (P21918 whole entry): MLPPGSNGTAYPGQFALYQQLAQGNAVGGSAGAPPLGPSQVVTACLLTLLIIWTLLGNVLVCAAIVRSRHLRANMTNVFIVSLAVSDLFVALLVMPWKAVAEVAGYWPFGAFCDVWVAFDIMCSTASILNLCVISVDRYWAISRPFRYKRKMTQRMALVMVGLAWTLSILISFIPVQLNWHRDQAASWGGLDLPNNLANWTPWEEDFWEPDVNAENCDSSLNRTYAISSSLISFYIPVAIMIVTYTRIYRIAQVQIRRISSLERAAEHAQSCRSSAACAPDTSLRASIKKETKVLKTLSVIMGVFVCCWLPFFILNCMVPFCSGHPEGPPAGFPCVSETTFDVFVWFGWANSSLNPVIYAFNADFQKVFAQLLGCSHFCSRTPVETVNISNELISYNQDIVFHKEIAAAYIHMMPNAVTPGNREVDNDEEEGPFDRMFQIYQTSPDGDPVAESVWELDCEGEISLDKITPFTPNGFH
Sequence of Ribosomal protein S6 kinase alpha-6 (Homo sapiens) (Q9UK32 whole entry): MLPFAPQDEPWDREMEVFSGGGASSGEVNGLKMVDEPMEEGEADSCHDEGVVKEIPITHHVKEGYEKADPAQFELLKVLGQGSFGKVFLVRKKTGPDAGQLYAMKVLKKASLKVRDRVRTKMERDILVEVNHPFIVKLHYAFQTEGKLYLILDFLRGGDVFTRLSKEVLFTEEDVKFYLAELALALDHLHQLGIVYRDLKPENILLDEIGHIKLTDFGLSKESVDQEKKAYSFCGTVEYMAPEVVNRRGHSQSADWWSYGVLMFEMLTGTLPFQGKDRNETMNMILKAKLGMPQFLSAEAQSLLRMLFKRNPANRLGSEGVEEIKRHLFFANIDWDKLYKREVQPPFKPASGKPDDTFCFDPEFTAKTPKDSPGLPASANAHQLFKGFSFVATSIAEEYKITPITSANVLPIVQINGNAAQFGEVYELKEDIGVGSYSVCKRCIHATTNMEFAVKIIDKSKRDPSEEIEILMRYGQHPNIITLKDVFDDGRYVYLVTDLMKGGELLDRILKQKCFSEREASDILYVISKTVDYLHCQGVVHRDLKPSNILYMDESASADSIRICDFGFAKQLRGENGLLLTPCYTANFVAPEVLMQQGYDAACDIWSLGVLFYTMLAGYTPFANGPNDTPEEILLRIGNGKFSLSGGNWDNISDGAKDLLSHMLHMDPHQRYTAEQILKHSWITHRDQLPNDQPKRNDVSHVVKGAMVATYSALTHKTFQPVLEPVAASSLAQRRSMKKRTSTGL
Sequence of Dual specificity mitogen-activated protein kinase kinase 2 (Homo sapiens) (P36507 whole entry): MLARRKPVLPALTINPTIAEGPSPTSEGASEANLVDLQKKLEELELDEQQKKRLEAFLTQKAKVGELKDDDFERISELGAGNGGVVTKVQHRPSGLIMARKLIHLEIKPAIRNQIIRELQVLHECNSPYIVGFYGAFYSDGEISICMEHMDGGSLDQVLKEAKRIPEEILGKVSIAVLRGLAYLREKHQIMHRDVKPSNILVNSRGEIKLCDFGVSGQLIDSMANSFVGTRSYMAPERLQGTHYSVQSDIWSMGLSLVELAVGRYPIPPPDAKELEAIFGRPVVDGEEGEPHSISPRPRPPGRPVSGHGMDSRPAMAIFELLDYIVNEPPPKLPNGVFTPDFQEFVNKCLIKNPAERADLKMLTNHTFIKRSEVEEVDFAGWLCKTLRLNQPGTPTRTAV
Sequence of Serine/threonine-protein kinase DCLK1 (Homo sapiens) (O15075 whole entry): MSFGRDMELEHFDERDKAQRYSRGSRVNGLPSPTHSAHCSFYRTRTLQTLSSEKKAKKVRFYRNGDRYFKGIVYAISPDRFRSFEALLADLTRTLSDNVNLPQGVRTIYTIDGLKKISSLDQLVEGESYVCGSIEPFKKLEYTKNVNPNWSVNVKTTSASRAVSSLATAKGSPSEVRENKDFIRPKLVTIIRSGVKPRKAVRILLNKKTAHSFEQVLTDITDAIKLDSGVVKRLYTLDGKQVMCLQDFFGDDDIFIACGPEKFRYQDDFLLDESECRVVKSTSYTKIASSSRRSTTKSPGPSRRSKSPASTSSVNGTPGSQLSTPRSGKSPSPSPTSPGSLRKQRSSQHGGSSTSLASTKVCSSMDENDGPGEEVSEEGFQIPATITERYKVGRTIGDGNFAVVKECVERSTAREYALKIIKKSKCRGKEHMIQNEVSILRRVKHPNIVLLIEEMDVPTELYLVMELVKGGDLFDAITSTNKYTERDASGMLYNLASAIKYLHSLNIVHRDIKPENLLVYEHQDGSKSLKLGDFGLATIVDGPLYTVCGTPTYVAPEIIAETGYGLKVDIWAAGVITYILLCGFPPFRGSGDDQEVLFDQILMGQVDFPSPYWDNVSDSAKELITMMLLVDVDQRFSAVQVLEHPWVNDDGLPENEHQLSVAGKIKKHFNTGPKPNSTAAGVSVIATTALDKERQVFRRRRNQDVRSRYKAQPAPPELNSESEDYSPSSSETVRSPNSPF
Sequence of RAF proto-oncogene serine/threonine-protein kinase (Homo sapiens) (P04049 whole entry): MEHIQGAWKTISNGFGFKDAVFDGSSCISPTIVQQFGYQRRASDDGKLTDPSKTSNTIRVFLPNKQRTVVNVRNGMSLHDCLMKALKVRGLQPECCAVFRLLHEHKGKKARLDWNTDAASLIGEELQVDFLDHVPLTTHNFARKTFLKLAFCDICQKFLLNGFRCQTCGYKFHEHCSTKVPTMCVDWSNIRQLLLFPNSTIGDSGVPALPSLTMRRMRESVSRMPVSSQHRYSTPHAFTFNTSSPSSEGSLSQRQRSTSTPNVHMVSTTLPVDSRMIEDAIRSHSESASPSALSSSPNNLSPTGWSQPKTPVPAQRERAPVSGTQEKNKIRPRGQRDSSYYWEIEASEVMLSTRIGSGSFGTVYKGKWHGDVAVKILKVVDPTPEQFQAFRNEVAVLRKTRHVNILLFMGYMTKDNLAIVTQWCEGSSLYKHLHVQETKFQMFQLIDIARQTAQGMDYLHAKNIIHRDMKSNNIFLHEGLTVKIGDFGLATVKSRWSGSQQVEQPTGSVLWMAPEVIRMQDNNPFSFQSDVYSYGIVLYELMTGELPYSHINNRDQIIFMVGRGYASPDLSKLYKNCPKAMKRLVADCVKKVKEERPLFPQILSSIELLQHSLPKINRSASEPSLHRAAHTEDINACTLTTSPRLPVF

C[C@@H]1CN(c2cc(-c3nn(C)c4ccc(OC5(C)CC5)cc34)ncn2)C[C@H](C)O1 [MLi-2-NC]
inactive: residual activity [1, 19] 62% | residual activity [2, 19] 64% | residual activity [3, 19] 61% | residual activity [4, 19] 99% | residual activity [5, 19] 100% | residual activity [6, 19] 55% | residual activity [7, 19] 90% | residual activity [8, 19] 73% | residual activity [9, 19] 100% | residual activity [10, 19] 89% | residual activity [11, 19] 100% | residual activity [12, 19] 84% | residual activity [13, 19] 100% | residual activity [14, 19] 78% | residual activity [15, 19] 89% | residual activity [16, 19] 99% | inhibition [17] 18.7% | inhibition [18] 3.61%

C[C@@H]1CN(c2cc(-c3n[nH]c4ccc(OC5(C)CC5)cc34)ncn2)C[C@H](C)O1 [MLi-2]
inactive: residual activity [1, 20] 74% | residual activity [2, 20] 81% | residual activity [3, 20] 82% | residual activity [4, 20] 84% | residual activity [5, 20] 96% | residual activity [6, 20] 77% | residual activity [7, 20] 64% | residual activity [8, 20] 85% | residual activity [9, 20] 64% | residual activity [10, 20] 100% | residual activity [11, 20] 100% | residual activity [12, 20] 97% | residual activity [13, 20] 100% | residual activity [14, 20] 77% | residual activity [15, 20] 96% | residual activity [16, 20] 72% | inhibition [17] 7.65% | inhibition [18] 16.1%
